Test results published in ChEMBL document CHEMBL1201862, “PubChem BioAssay data set” (2004).
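Following 48 hours of exposure in 96-well plates, responses at five concentrations were used to interpolate endpoints linearly. Abbreviation: GI50, concentration required for 50% inhibition of growth.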 Activity calls are given as the source filed them. Cut-off read from the data, not from the text of the source: active = GI50 up to about 1.1 µM and inactive = higher.

Columns and labels:
Test in all cases: NCI-60 cell line screen, 48 h
SK-OV-3 = system: SK-OV-3
SF-295 = system: SF-295
MCF7 = system: MCF7
SK-MEL-2 = system: SK-MEL-2
SK-MEL-28 = system: SK-MEL-28
NCI-H460 = system: NCI-H460
RPMI-8226 = system: RPMI-8226
MDA-MB-231 = system: MDA-MB-231
MOLT-4 = system: MOLT-4
UO-31 = system: UO-31
MDA-MB-435 = system: MDA-MB-435
SW-620 = system: SW-620
CCRF-CEM = system: CCRF-CEM
CAKI-1 = system: CAKI-1
NCI-H522 = system: NCI-H522
DU-145 = system: DU-145
SF-539 = system: SF-539
UACC-62 = system: UACC-62
MDA-N = system: MDA-N
SK-MEL-5 = system: SK-MEL-5

Measured: GI50

CCOC(=O)c1nc2ccc(C(F)(F)F)cc2nc1NCc1ccc(F)cc1
inactive: SK-OV-3 43 µM | SF-295 75.5 µM | MCF7 30.9 µM | SK-MEL-2 59.4 µM | SK-MEL-28 44 µM | NCI-H460 19.2 µM | RPMI-8226 23.5 µM | MDA-MB-231 32.1 µM | MOLT-4 42.8 µM | UO-31 29 µM | MDA-MB-435 31.9 µM | SW-620 34.1 µM | CCRF-CEM 24.9 µM | CAKI-1 41.5 µM | NCI-H522 18.1 µM | DU-145 46.5 µM | SF-539 80 µM | UACC-62 23.1 µM | MDA-N 25.4 µM

O=c1oc2ccccc2c(-c2ccc(O)cc2)c1Oc1ccc(Cl)cc1
inactive: SF-295 17 µM | MCF7 4.88 µM | SK-MEL-2 17.9 µM | SK-MEL-5 18.3 µM | SK-MEL-28 15.3 µM | NCI-H460 20.4 µM | RPMI-8226 20.7 µM | MDA-MB-231 22.4 µM | UO-31 18.1 µM | MDA-MB-435 30 µM | SW-620 30.5 µM | CCRF-CEM 21.4 µM | CAKI-1 28.8 µM | NCI-H522 16.9 µM | DU-145 42.7 µM | SF-539 30.4 µM | UACC-62 19.9 µM | MDA-N 19.5 µM

O=c1ccn([C@@H]2C[C@H]2CO)c(=O)[nH]1
inactive: MCF7 > 100 µM | SK-MEL-2 > 100 µM | SK-MEL-5 > 100 µM | SK-MEL-28 > 100 µM | NCI-H460 > 100 µM | RPMI-8226 > 100 µM | MDA-MB-231 > 100 µM | MOLT-4 > 100 µM | UO-31 > 100 µM | MDA-MB-435 > 100 µM | SW-620 > 100 µM | CCRF-CEM > 100 µM | CAKI-1 > 100 µM | NCI-H522 > 100 µM | DU-145 > 100 µM | SF-539 > 100 µM | UACC-62 > 100 µM | MDA-N > 100 µM

COc1c2ccoc2cc2oc(=O)ccc12 [BERGAPTEN]
inactive: SF-295 > 100 µM | MCF7 > 100 µM | SK-MEL-2 > 100 µM | SK-MEL-5 > 100 µM | SK-MEL-28 > 100 µM | NCI-H460 > 100 µM | RPMI-8226 > 100 µM | MDA-MB-231 > 100 µM | MOLT-4 > 100 µM | MDA-MB-435 > 100 µM | SW-620 > 100 µM | CCRF-CEM > 100 µM | CAKI-1 > 100 µM | NCI-H522 > 100 µM | DU-145 > 100 µM | SF-539 > 100 µM | UACC-62 > 100 µM | MDA-N > 100 µM

CCn1c2ccccc2c2ccc(C3C4C(=O)N(c5cccc6ccccc56)C(=O)C4ON3C(C(N)=O)c3ccccc3)cc21 (configuration not stated)
inactive: SK-OV-3 > 25 µM | SF-295 > 25 µM | MCF7 8.38 µM | SK-MEL-2 12.4 µM | SK-MEL-5 14.2 µM | SK-MEL-28 > 25 µM | NCI-H460 12.9 µM | MDA-MB-231 > 25 µM | MOLT-4 7.53 µM | UO-31 > 25 µM | MDA-MB-435 10.2 µM | SW-620 12.8 µM | CAKI-1 4.66 µM | NCI-H522 > 25 µM | DU-145 14.8 µM | SF-539 7.59 µM | UACC-62 9.04 µM | MDA-N 9.1 µM

CNC(=O)CCC(NC(C)=O)C(=O)NC(Cc1ccc(NC(=O)CCCCC(C)=O)cc1)C(=O)NC(CCC(=O)NC)C(=O)NC (configuration not stated)
inactive: SK-OV-3 > 100 µM | SF-295 > 100 µM | MCF7 > 100 µM | SK-MEL-5 > 100 µM | SK-MEL-28 > 100 µM | NCI-H460 > 100 µM | RPMI-8226 > 100 µM | MDA-MB-231 > 100 µM | MOLT-4 > 100 µM | UO-31 > 100 µM | MDA-MB-435 > 100 µM | SW-620 > 100 µM | CAKI-1 > 100 µM | NCI-H522 > 100 µM | DU-145 > 100 µM | SF-539 > 100 µM | UACC-62 > 100 µM | MDA-N > 100 µM

O=Cc1ccc(OCc2cccc(COc3ccc(/C=N\Nc4ccc([N+](=O)[O-])cc4[N+](=O)[O-])cc3)n2)cc1
inactive: SF-295 > 100 µM | MCF7 > 100 µM | SK-MEL-2 89.5 µM | SK-MEL-5 > 100 µM | SK-MEL-28 > 100 µM | NCI-H460 > 100 µM | RPMI-8226 > 100 µM | MDA-MB-231 43.6 µM | MOLT-4 33.9 µM | UO-31 > 100 µM | MDA-MB-435 > 100 µM | SW-620 > 100 µM | CCRF-CEM 55.1 µM | CAKI-1 > 100 µM | NCI-H522 > 100 µM | DU-145 > 100 µM | UACC-62 > 100 µM | MDA-N > 100 µM
